Data: publication PMC6348446 (Journal of Medicinal Chemistry, 2018)

Key:
[1] = test system: EOL-1 and A-204 cells; test: Cell viability/proliferation, ranges stated over EOL-1 and A-204; assay type: cell-based; details: Homo sapiens; EOL-1 and A-204, text; read-out: EC50 (cell viability), range
Procedure: (§1) A-204 cells (1 × 10^3) were seeded per well of 384-well plates. After overnight incubation, compounds were added to the cells at logarithmic dose series using the HP digital dispenser D300 (Tecan), normalizing for added DMSO. 1 day and 8 days after seeding cellular ATP content was measured using CellTiterGlo (Promega). Measurements after 8 days were divided by the measurement after 1 day (i.e., the T0 plate) to derive fold proliferation. Data were analyzed with GraphPad Prism software to obtain EC50 values.

[2] = test system: EOL-1 cells; test: Cell viability/proliferation (cellular ATP, CellTiterGlo) in EOL-1; assay type: cell-based; details: Homo sapiens, EOL1; EOL-1, text; read-out: EC50 (cytotoxicity, cell viability)
[3] = test system: A-204 cells; test: Cell viability/proliferation (cellular ATP, CellTiterGlo) in A-204; assay type: cell-based; details: Homo sapiens, A204; A-204 (printed A-402); read-out: EC50 (cytotoxicity, cell viability)
Procedure: as §1

[4] = CHI LogD determination (reverse-phase HPLC); assay type: physicochemical; details: reversed-phase HPLC (ACE Excel 3 SuperC18 column), pH 7.4; read-out: CHI LogD (pH7.4)
Procedure: (§2) removed from both acceptor and donor compartments and mixed with acetonitrile (80 µL) containing an internal standard. The samples were centrifuged (10 min, 5 °C, 3270 g) to sediment precipitated protein and sealed prior to UPLC-MS/MS analysis using a Xevo TQ-S Micro (Waters Corp, USA). Pe was calculated as shown in the below equation: […]
(§3) CA(t) = peak area of compound present in acceptor well at time t = 18000 s Cequi = [CD(t) x VD + CA(t) x VA] / (VD + VA)
(§4) VA = acceptor well volume
(§5) CD(t) = peak area of compound present in donor well at time t = 18000 s Recovery of compound from donor and acceptor wells was calculated and data was only accepted when recovery exceeded 70%.
Using a fast gradient, reverse-phase HPLC method to determine the chromatographic hydrophobicity index (CHI) was determined as described by Camurri and Zaramella (ref. 3) and Valko et al. (ref. 4). Briefly, by plotting the retention time of a set of reference […]
compounds against known CHI values. The CHI value of test compounds was then calculated according to their retention time.
Test compounds were prepared as 0.25 mM solutions in 50:50 acetonitrile:water and analysed by reversed-phase HPLC-UV (wavelength 254 nm) using a ACE Excel 3 SuperC18, 3 µm, 50 x 2.1 mm column with a gradient of aqueous phase (10 mM ammonium acetate, pH 7.4) and mobile phase (acetonitrile).
Intrinsic clearance (Cli) experiments
Test compound (0.5 µM) was incubated with female CD1 mouse or human (mixed gender) liver microsomes (Xenotech LLCTM; 0.5 mg/mL 50mM potassium phosphate buffer, pH7.4) and the reaction initiated with addition of excess NADPH (8 mg/mL 50 mM potassium phosphate buffer, pH7.4). Immediately, at time zero, then at 3, 6, 9, 15 and 30 minutes an aliquot (50 µL) of the incubation mixture was removed and mixed with acetonitrile (100 µL) to stop the reaction. Internal standard was added to all samples, the samples centrifuged to sediment precipitated protein and the plates then sealed prior to […] analysis using […]
a Xevo TQ-S Micro (Waters corporation, USA).
XLfit (IDBS, UK) was used to calculate the exponential decay and consequently the rate constant (k) from the ratio of peak area of test compound to internal standard at each timepoint. The rate of intrinsic clearance (CLi) of each test compound was then calculated using the following calculation:
CLi(mL/min/g liver) = k x V x Microsomal protein yield
Where V (mL/mg protein) is the incubation volume/mg protein added and microsomal protein yield is taken as 52.5 mg protein/ g liver. Verapamil (0.5 µM) was used as a positive control to confirm acceptable assay performance.

[5] = Parallel Artificial Membrane Permeability Assay (PAMPA); assay type: in vitro ADME
Procedure: Test compound (10 µM) was incubated in pre-warmed plasma at 37 ᵒC (that is buffered to pH 7.4 in ratio of 70:30 plasma to buffer). Immediately, at time zero, then at 30, 60, 120, and 180 min, a 50 µL aliquot of the incubation mixture was removed and mixed with 200 µL acetonitrile containing Donepezil as the internal standard (50 ng/ml) to stop the reaction. The samples were centrifuged to sediment the precipitated protein and the plates then sealed prior to UPLC-MS/MS analysis using a Xevo TQ-S Micro (Waters Corporation, USA).
XLfit (IDBS, UK) was used to calculate the exponential decay and consequently the rate constant (k) from the ratio of peak area of test compound to internal standard at each time point. The half-life was calculated for each test compound from the rate by using the […]
Parallel Artificial Membrane Permeability Assay (PAMPA)
PAMPA was performed using a 96-well pre-coated BD Gentest™ PAMPA plate (BD Biosciences, U.K.). Each well was divided into two chambers; donor and acceptor, separated by a lipid-oil-lipid tri-layer constructed in a porous filter. The effective permeability, Pe, of the compound was measured at pH 7.4. Stock solutions (5 mM) of the compound were prepared in DMSO. The compound was then further diluted to 10 µM in phosphate buffered […]
saline at pH 7.4. […] The compound […]
dissolved in phosphate buffered saline was then added to the donor side of the membrane and phosphate buffered saline without compound was added to the acceptor side. The PAMPA plate was left at room temperature for 5 h. After which time, an aliquot (100 µL) was then […]
as §2, §3, §4, §5
Using a fast gradient, reverse-phase HPLC method to determine the chromatographic hydrophobicity index (CHI) was determined as described by Camurri and Zaramella (ref. 3) and Valko et al. (ref. 4). Briefly, by plotting the retention time of a set of reference

COc1cc(-c2cn(C)c(=O)c3cnccc23)cc(OC)c1CN(C)C [Compound 1a]
EC50 [1]: 90 to 340 nM

COc1cc(-c2cn(C)c(=O)c3cnccc23)c(OC)cc1CN(C)C [Compound 1b]
EC50 [1]: 370 to 3550 nM

COc1cc(-c2cn(C)c(=O)c3cnccc23)cc(OC)c1CN(C)CC(=O)NCCOCCOCCNc1cccc2c1C(=O)N(C1CCC(=O)NC1=O)C2=O (centres unmarked) [Compound 21, reference compound]
EC50 [2]: 5 nM
EC50 [3]: 90 nM

COc1cc(-c2cn(C)c(=O)c3cnccc23)cc(OC)c1CN1CCN(CCOCCOc2cc(-c3scnc3C)ccc2CNC(=O)[C@@H]2C[C@@H](O)CN2C(=O)[C@@H](NC(=O)C2(F)CC2)C(C)(C)C)CC1 [Compound 46, (2S,4R)-N-(2-(2-(2-(4-(2,6-Dimethoxy-4-(2-methyl-1-oxo-1,2-dihydro-2,7-naphthyridin-4-yl)benzyl)piperazin-1-yl)ethoxy)ethoxy)-4-(4-methylthiazol-5-yl)benzyl)-1-((S)-2-(1-fluorocyclopropane-1-carboxamido)-3,3-dimethylbutanoyl)-4-hydroxypyrrolidine-2-carboxamide]
chromatographic logD [4]: 2
recovery at 5 h, 10 µM ([5]; PAMPA, pH 7.4): 88%
Papp at 5 h, 10 µM ([5]; PAMPA, pH 7.4, 5 h, read-out: PAMPA pH 7.4 Pe): 0.002 ×10⁻⁶ cm/s
PAMPA pH 7.4 HIGH/MED/LOW ([5]; pH 7.4, permeability class): LOW and low cell permeability
